According to patent US20180057507A1, “INHIBITORS OF DUAL LEUCINE ZIPPER (DLK) KINASE FOR THE TREATMENT OF DISEASE” (Board of Regents, The University of Texas System, priority 2016, published 2018):

Molecular target: T1, human DLK (Homo sapiens, UniProt Q12852)
T1 sequence (Q12852 1-859): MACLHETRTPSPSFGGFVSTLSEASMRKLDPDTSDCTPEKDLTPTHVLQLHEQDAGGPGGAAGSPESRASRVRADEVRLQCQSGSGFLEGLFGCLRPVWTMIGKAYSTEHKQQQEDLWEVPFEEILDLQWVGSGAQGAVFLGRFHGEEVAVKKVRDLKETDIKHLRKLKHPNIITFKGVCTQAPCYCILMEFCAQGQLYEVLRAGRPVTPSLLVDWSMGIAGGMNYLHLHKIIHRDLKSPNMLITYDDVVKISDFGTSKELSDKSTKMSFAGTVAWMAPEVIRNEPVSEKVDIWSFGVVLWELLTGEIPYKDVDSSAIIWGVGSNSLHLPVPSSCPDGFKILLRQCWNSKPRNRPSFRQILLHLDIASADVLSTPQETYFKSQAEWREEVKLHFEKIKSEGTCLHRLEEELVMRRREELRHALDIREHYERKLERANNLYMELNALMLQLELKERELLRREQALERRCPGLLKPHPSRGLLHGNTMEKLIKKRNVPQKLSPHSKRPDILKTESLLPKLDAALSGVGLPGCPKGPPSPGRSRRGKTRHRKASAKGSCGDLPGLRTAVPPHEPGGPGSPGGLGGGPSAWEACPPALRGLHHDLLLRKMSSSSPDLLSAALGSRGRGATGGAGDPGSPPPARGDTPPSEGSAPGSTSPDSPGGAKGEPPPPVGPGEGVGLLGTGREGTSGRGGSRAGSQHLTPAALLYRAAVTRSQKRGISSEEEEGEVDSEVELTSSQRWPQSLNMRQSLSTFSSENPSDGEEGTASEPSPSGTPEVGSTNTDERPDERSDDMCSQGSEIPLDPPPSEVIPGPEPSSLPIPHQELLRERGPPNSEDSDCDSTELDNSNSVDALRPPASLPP
Assay: DLK Kd Determinations (KINOMEscan KdELECT, DiscoveRx)
Parameters: full length of human DLK (amino acids 1-859); host or cells: transiently transfected HEK293 cells; unpurified extract
Conditions: fusion protein of full length human DLK (amino acids 1-859) and NFkB DNA binding domain; qPCR readout; duplicate
Outline: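 Competition binding of full-length human DLK (aa 1-859)-NFkB DBD fusion, DNA-tagged, from HEK293 extracts against an immobilized ligand; 1 h at room temperature, 0.9% DMSO. Bead-bound kinase was quantified by qPCR. Kd came from an 11-point 3-fold series (top 30,000 nM), in duplicate, with Hill slope fixed at −1.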

Row | Structure (SMILES) | Kd [nM]
1 | CC(=O)N1C[C@@H]2[C@H](C1)[C@H]2n1cc(-c2cnc(N)c(OC(F)(F)F)c2)nc1CC1CC1 [Example 91, 1-((1R,5S,6s)-6-(4-(6-amino-5-(trifluoromethoxy)pyridin-3-yl)-2-(cyclopropylmethyl)-1H-imidazol-1-yl)-3-azabicyclo[3.1.0]hexan-3-yl)ethan-1-one] | 77
2 | CC(=O)N1C[C@@H]2[C@H](C1)[C@H]2n1cc(-c2cnc(N)c(C(F)(F)F)c2)nc1CC1CC1 [Example 114, 1-((1R,5S,6s)-6-(4-(6-amino-5-(trifluoromethyl)pyridin-3-yl)-2-(cyclopropylmethyl)-1H-imidazol-1-yl)-3-azabicyclo[3.1.0]hexan-3-yl)ethan-1-one] | 66
3 | CC(C)c1nc(-c2cnc(N)c(C(F)(F)F)c2)cn1[C@H]1[C@@H]2CN(CCF)C[C@@H]21 [Example 16, 5-(1-((1R,5S,6s)-3-(2-fluoroethyl)-3-azabicyclo[3.1.0]hexan-6-yl)-2-isopropyl-1H-imidazol-4-yl)-3-(trifluoromethyl)pyridin-2-amine] | 68
4 | Nc1ncc(-c2cn([C@H]3[C@@H]4CN(CCF)C[C@@H]43)c(CC(F)(F)F)n2)cc1C(F)(F)F [Example 123, 5-(1-((1R,5S,6s)-3-(2-fluoroethyl)-3-azabicyclo[3.1.0]hexan-6-yl)-2-(2,2,2-trifluoroethyl)-1H-imidazol-4-yl)-3-(trifluoromethyl)pyridin-2-amine] | 65
5 | CC(C)c1nc(-c2cnc(N)c(C(F)(F)F)c2)cn1C [Example 21, 5-(2-isopropyl-1-methyl-1H-imidazol-4-yl)-3-(trifluoromethyl)pyridin-2-amine] | 640
6 | Nc1ncc(-c2cn([C@H]3[C@@H]4CNC[C@@H]43)c(CC3CC3)n2)cc1C(F)(F)F [Example 59, 5-(1-((1R,5S,6s)-3-azabicyclo[3.1.0]hexan-6-yl)-2-(cyclopropylmethyl)-1H-imidazol-4-yl)-3-(trifluoromethyl)pyridin-2-amine] | 50
7 | CC(=O)N1C[C@@H]2[C@H](C1)[C@H]2n1cc(-c2cnc(N)c(C(F)(F)F)c2)nc1C(C)C [Example 14, 1-(6-(4-(6-amino-5-(trifluoromethyl)pyridin-3-yl)-2-isopropyl-1H-imidazol-1-yl)-3-azabicyclo[3.1.0]hexan-3-yl)ethan-1-one] | 170
8 | Nc1ncc(-c2cn([C@H]3[C@@H]4CNC[C@@H]43)c(CC(F)(F)F)n2)cc1C(F)(F)F [Example 120, 5-(1-((1R,5S,6s)-3-azabicyclo[3.1.0]hexan-6-yl)-2-(2,2,2-trifluoroethyl)-1H-imidazol-4-yl)-3-(trifluoromethyl)pyridin-2-amine] | 40
9 | COCCN1C[C@@H]2[C@H](C1)[C@H]2n1cc(-c2cnc(N)c(OC(F)F)c2)nc1C1CC1 [Example 107, 5-(2-cyclopropyl-1-((1R,5S,6s)-3-(2-methoxyethyl)-3-azabicyclo[3.1.0]hexan-6-yl)-1H-imidazol-4-yl)-3-(difluoromethoxy)pyridin-2-amine] | 74
10 | CC(C)c1nc(-c2cnc(N)c(C(F)(F)F)c2)cn1Cc1ccccn1 [Example 30, 5-(2-isopropyl-1-(pyridin-2-ylmethyl)-1H-imidazol-4-yl)-3-(trifluoromethyl)pyridin-2-amine] | 1500
11 | CC(C)c1nc(-c2cnc(N)c(OC(F)F)c2)cn1[C@H]1[C@@H]2CN(C3CCOCC3)C[C@@H]21 [Example 60, 3-(difluoromethoxy)-5-(2-isopropyl-1-((1R,5S,6s)-3-(tetrahydro-2H-pyran-4-yl)-3-azabicyclo[3.1.0]hexan-6-yl)-1H-imidazol-4-yl)pyridin-2-amine] | 180
12 | CC1OCCn2cc(-c3cnc(N)c(C(F)(F)F)c3)nc21 (stereo not drawn) [Example 5, 5-(8-methyl-6,8-dihydro-5H-imidazo[2,1-c][1,4]oxazin-2-yl)-3-(trifluoromethyl)pyridin-2-amine] | 3300
13 | CC(C)c1nc(-c2cnc(N)c(C(F)(F)F)c2)cn1[C@H]1[C@@H]2CN(C3CCOCC3)C[C@@H]21 [Example 13, 5-(2-isopropyl-1-((1R,5S,6s)-3-(tetrahydro-2H-pyran-4-yl)-3-azabicyclo[3.1.0]hexan-6-yl)-1H-imidazol-4-yl)-3-(trifluoromethyl)pyridin-2-amine] | 78
14 | Nc1ncc(-c2cn3c(n2)COCC3)cc1C(F)(F)F [Example 10, 5-(5,6-dihydro-8H-imidazo[2,1-c][1,4]oxazin-2-yl)-3-(trifluoromethyl)pyridin-2-amine] | 840
15 | Nc1ncc(-c2cn(C3CC3)c(CC3CC3)n2)cc1C(F)(F)F [Example 47, 5-(1-cyclopropyl-2-(cyclopropylmethyl)-1H-imidazol-4-yl)-3-(trifluoromethyl)pyridin-2-amine] | 120
16 | CC(C)c1nc(-c2cnc(N)c(C(F)(F)F)c2)cn1[C@H]1[C@@H]2CN(CC(F)(F)F)C[C@@H]21 [Example 18, 5-(2-isopropyl-1-((1R,5S,6s)-3-(2,2,2-trifluoroethyl)-3-azabicyclo[3.1.0]hexan-6-yl)-1H-imidazol-4-yl)-3-(trifluoromethyl)pyridin-2-amine] | 720

The remaining compounds from weak to strong by Kd, led by results:

Row | Kd [nM] | Structure (SMILES)
17 | 1000 | CC(C)c1nc(-c2cnc(N)c(C(F)(F)F)c2)cn1C1COC1 [Example 29, 5-(2-isopropyl-1-(oxetan-3-yl)-1H-imidazol-4-yl)-3-(trifluoromethyl)pyridin-2-amine]
18 | 400 | CC(C)c1nc(-c2cnc(N)c(C(F)(F)F)c2)cn1C1CC(F)(F)C1 [Example 26, 5-(1-(3,3-difluorocyclobutyl)-2-isopropyl-1H-imidazol-4-yl)-3-(trifluoromethyl)pyridin-2-amine]
19 | 340 | Nc1ncc(-c2cn([C@H]3[C@@H]4CN(CC(F)(F)F)C[C@@H]43)c(CC3CC3)n2)cc1OC(F)(F)F [Example 99, 5-(2-(cyclopropylmethyl)-1-((1R,5S,6s)-3-(2,2,2-trifluoroethyl)-3-azabicyclo[3.1.0]hexan-6-yl)-1H-imidazol-4-yl)-3-(trifluoromethoxy)pyridin-2-amine]
20 | 240 | CC(C)c1nc(-c2cnc(N)c(C(F)(F)F)c2)cn1[C@H]1C[C@@H](F)C1 [Example 24, 5-(1-((1s,3s)-3-fluorocyclobutyl)-2-isopropyl-1H-imidazol-4-yl)-3-(trifluoromethyl)pyridin-2-amine]
21 | 200 | CC(=O)N1C[C@@H]2[C@H](C1)[C@H]2n1cc(-c2cnc(N)c(OC(F)F)c2)nc1CC1CC1 [Example 115, 1-((1R,5S,6s)-6-(4-(6-amino-5-(difluoromethoxy)pyridin-3-yl)-2-(cyclopropylmethyl)-1H-imidazol-1-yl)-3-azabicyclo[3.1.0]hexan-3-yl)ethan-1-one]
22 | 140 | Nc1ncc(-c2cn([C@H]3[C@@H]4CN(CC(F)F)C[C@@H]43)c(CC3CC3)n2)cc1C(F)(F)F [Example 61, 5-(2-(cyclopropylmethyl)-1-((1R,5S,6s)-3-(2,2-difluoroethyl)-3-azabicyclo[3.1.0]hexan-6-yl)-1H-imidazol-4-yl)-3-(trifluoromethyl)pyridin-2-amine]
23 | 130 | Nc1ncc(-c2cn([C@H]3[C@@H]4CN(CC(F)F)C[C@@H]43)c(C3CC3)n2)cc1OC(F)(F)F [Example 67, 5-(2-cyclopropyl-1-((1R,5S,6s)-3-(2,2-difluoroethyl)-3-azabicyclo[3.1.0]hexan-6-yl)-1H-imidazol-4-yl)-3-(trifluoromethoxy)pyridin-2-amine]
24 | 130 | CC(C)c1nc(-c2cnc(N)c(C(F)(F)F)c2)cn1C1CCC(O)CC1 (stereo not drawn) [Example 33, 4-(4-(6-amino-5-(trifluoromethyl)pyridin-3-yl)-2-isopropyl-1H-imidazol-1-yl)cyclohexan-1-ol]
25 | 130 | CC(C)n1cc(-c2cnc(N)c(C(F)(F)F)c2)nc1C1CC1 [Example 8, 5-[2-cyclopropyl-1-(propan-2-yl)-1H-imidazol-4-yl]-3-(trifluoromethyl)pyridin-2-amine]
26 | 100 | CC(C)c1nc(-c2cnc(N)c(OC(F)(F)F)c2)cn1[C@H]1[C@@H]2CN(CCF)C[C@@H]21 [Example 111, 5-(1-((1R,5S,6s)-3-(2-fluoroethyl)-3-azabicyclo[3.1.0]hexan-6-yl)-2-isopropyl-1H-imidazol-4-yl)-3-(trifluoromethoxy)pyridin-2-amine]
27 | 85 | Nc1ncc(-c2cn([C@H]3[C@@H]4CN(C5COC5)C[C@@H]43)c(C3CCCC3)n2)cc1C(F)(F)F [Example 62, 5-(2-cyclopentyl-1-((1R,5S,6s)-3-(oxetan-3-yl)-3-azabicyclo[3.1.0]hexan-6-yl)-1H-imidazol-4-yl)-3-(trifluoromethyl)pyridin-2-amine]
